Consider 12 compounds from the SangsterLogP compilation.

As a reminder, the logP is the decadic logarithm of the partition coefficient of the neutral form, usually between octanol and water. A higher logP goes with higher lipophilicity. On to `C=CCOc1nc(Sc2c([N+](=O)[O-])ncn2C)c2c(ncn2C)n1`, for which the lipophilicity (logP) came out at 2.02. The figure for `CN1C=NC([N+](=O)[O-])C1Sc1nc2ncn(C)c2c(=O)[nH]1` (configuration not stated) is 1.21. The figure for `Cn1cnc([N+](=O)[O-])c1Sc1nc(Sc2c([N+](=O)[O-])ncn2C)c2c(ncn2C)n1` is 1.68. The figure for `Cn1cnc([N+](=O)[O-])c1Sc1nc(OCc2ccccc2)nc2ncn(C)c12` is 2.67; for `C=CCSc1nc(Sc2c([N+](=O)[O-])ncn2C)c2c(ncn2C)n1` it is 2.43; for `CSc1nc(Sc2c([N+](=O)[O-])ncn2C)c2c(ncn2C)n1` it is 1.6. `Cn1cnc([N+](=O)[O-])c1Sc1nc(=O)[nH]c2ncn(C)c12` came in with a logP of 1.12. The figure for `Cn1cnc([N+](=O)[O-])c1Sc1nc(Cl)nc2ncn(C)c12` is 1.5.

Regarding `COc1nc(Sc2c([N+](=O)[O-])ncn2C)c2c(ncn2C)n1`, the logP stood at 1.45. The figure for `Cn1cnc([N+](=O)[O-])c1Sc1nc2ncn(C)c2c(=S)[nH]1` is 1.26; for `Cn1cnc([N+](=O)[O-])c1Sc1nc(SCc2ccccc2)nc2ncn(C)c12` it is 2.91; for `Cn1cnc([N+](=O)[O-])c1Sc1nc(=S)[nH]c2ncn(C)c12` it is 1.19.
